Assay results: ChEMBL document CHEMBL1124675, “Synthesis and biological evaluation of a monocyclic, fully functional analogue of compactin” (J Med Chem, 1989)
pIC50: −log10 of the molar value.

These compounds were tested against T1, 3-hydroxy-3-methylglutaryl-coenzyme A reductase (Rattus norvegicus, UniProt P51639) (assay: Ability of compound to inhibit the activity of 3-hydroxy-3-methylglutarylcoenzyme A(HMGR) reductase in rat liver microsomes).
T1 sequence (P51639 whole entry): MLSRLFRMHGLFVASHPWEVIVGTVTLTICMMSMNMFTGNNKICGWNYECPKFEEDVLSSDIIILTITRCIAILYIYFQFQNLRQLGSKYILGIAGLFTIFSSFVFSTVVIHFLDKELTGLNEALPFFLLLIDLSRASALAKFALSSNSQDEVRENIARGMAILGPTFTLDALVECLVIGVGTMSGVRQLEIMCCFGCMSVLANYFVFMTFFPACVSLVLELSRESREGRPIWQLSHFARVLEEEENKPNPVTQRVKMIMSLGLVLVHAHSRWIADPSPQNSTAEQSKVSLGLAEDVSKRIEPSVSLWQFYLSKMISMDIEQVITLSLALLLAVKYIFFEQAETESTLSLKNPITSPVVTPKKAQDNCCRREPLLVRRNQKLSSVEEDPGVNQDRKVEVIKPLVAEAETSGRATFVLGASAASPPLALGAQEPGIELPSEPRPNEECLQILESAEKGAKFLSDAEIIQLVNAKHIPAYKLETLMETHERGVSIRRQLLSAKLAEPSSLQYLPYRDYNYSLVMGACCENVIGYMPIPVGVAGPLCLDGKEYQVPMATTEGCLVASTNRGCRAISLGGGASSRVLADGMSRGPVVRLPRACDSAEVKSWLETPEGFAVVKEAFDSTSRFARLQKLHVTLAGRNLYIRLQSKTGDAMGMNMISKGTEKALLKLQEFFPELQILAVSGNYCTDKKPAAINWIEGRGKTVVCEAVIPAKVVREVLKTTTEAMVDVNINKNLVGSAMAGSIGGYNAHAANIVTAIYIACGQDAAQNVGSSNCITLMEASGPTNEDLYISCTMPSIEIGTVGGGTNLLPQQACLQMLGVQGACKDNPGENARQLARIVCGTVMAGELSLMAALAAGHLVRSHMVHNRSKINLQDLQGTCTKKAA
Set-up: species or system Microsome

| SMILES | pIC50 |
| --- | --- |
| O=C(O)C[C@H](O)CC(=O)CCc1ccccc1 | 2.89 |
| CC[C@H](C)C(=O)O[C@H]1CCC=C2C=C[C@H](C)[C@H](CCC(=O)C[C@@H](O)CC(=O)O)C21 (stereo not given in full) | 7.49 |
| O=C(O)CC(O)CC(O)CCc1ccccc1 (stereo not given) | 3.22 |

Compounds with a higher pIC50, results first:

| pIC50 | SMILES |
| --- | --- |
| 7.89 | CC[C@H](C)C(=O)O[C@H]1CCC=C2C=C[C@H](C)[C@H](CCC(O)C[C@@H](O)CC(=O)O)C21 (stereo not given in full) |
| 8.80 | CC[C@H](C)C(=O)O[C@H]1C[C@@H](C)C[C@@H]2C=C[C@H](C)[C@H](CCC(O)C[C@@H](O)CC(=O)O)C12 (stereo not given in full) |
